Experimental data published in patent US4587254A, “1,3,4-thiadiazole derivatives, process for the production thereof and use thereof as antiulcer agent” (Wakamoto Pharmaceutical Co., Ltd., priority 1983, dated 1986).
“And” between values parts separate entries of the source, which are not always exact repeats. Equal entries are not always repeated. Structures can show the parent of a compound that is named as a salt.

How the values were obtained:
[1] = Acute toxicity in rats (LD50); conditions: rat, in vivo
From the text: (§1) For example, the acute toxicities of a compound of the formula (I) wherein R2 represents --NH2 in mice and rats are as shown in Table 1. The acute toxicities of compounds of the formula (I) wherein R2 represents --NHCH3, --SH or --SCH3 are nearly equal to that shown in Table 1.

[2] = Acute toxicity in mice (LD50); conditions: mouse, in vivo
From the text: as §1

[3] = system: secretion of acid in the stomach; assay: Inhibition of the secretion of acid in the stomach (pylorus-ligated rats); assay type: in vivo, rats (Donryu male); conditions: duodenum, 6 h; for Acidity / Gastric juice secreted / Inhibition rate (acidity) / Inhibition rate (amount of acid discharged) / Inhibition rate (gastric juice secreted) / Inhibition rate (pepsin activity) / Pepsin activity / Amount of acid discharged: five rats
Experimental: The pylorus was ligated. Immediately thereafter, a test sample was placed in the duodenum and the abdomen was closed. Six hour after the administration of the test sample, the stomach was taken out under […] anesthesia and the gastric juice was taken out. The gastric juice was centrifuged. The quantity, acidity and pepsin activity of the supernatant liquid were determined. […] The amount of the acid discharged per hour was calculated by multiplying the acidity by the quantity of the juice. Pepsin activity was determined by Anson's method [J. gen. […] The results of the tests of TAS are the averages of the group consisting of ten rats.

[4] = Antiulcer effects (pylorus-ligated rats); assay type: in vivo, rats (Donryu); conditions: for Inhibition rate (ulcer): duodenum, 8 h
Experimental: Donryu rats weighing 200 to 230 g were used. Each group consisted of 6 rats. After fasting for 72 h, the rats were subjected to an abdominal operation under etheral anesthesia. The pylorus was ligated. Immediately thereafter, a given dose of a test sample was placed in the duodenum. Thereafter, neither food nor water was given. After 8 h, the stomach was taken out under etheral anesthesia and immersed in 1% formalin solution for 10 min. The stomach was cut along the greater curvature. The area of ulcer formed in the forestomach was determined by an anatomico-microscopicobservation (magnification: ×10). The rate of control of the ulcer (%) was calculated as compared with a control.

Nc1nnc(NCCCOc2cccc(CN3CCCCC3)c2)s1 [2-N-{3-[3-(1-piperidinomethyl)phenoxy]propyl}amino-5-amino-1,3,4-thiadiazole]
LD50 ([1]; intravenous injection): 91.6 mg/kg
LD50 ([1]; po, peroral): 1410 mg/kg
LD50 ([2]; intravenous injection): 53.2 mg/kg
LD50 ([2]; po, peroral): 1220 mg/kg

CNc1nnc(NCCCOc2cccc(CN3CCCCC3)c2)s1 [H2 --33, 2-N-{3-[3-(1-piperidinomethyl)phenoxy]-propyl}amino-5-methylamino-1,3,4-thiadiazole]
Acidity ([3]; 6.7 mg/kg): 70.0 meq H^+ /l
Gastric juice secreted ([3]; 6.7 mg/kg): 4.8 mL
Inhibition rate (acidity) ([3]; 6.7 mg/kg): 14.0%
Inhibition rate (amount of acid discharged) ([3]; 6.7 mg/kg): 35.0%
Inhibition rate (gastric juice secreted) ([3]; 6.7 mg/kg): 17.0%
Inhibition rate (pepsin activity) ([3]; 6.7 mg/kg): -3.2%
Pepsin activity ([3]; 6.7 mg/kg): 6.4 mg/mL
Acidity ([3]; 20.0 mg/kg): 52.0 meq H^+ /l
Gastric juice secreted ([3]; 20.0 mg/kg): 2.5 mL
Inhibition rate (acidity) ([3]; 20.0 mg/kg): 36.0%
Inhibition rate (amount of acid discharged) ([3]; 20.0 mg/kg): 70.0%
Inhibition rate (gastric juice secreted) ([3]; 20.0 mg/kg): 57.0%
Inhibition rate (pepsin activity) ([3]; 20.0 mg/kg): 0%
Pepsin activity ([3]; 20.0 mg/kg): 6.2 mg/mL
Acidity ([3]; 60.0 mg/kg): 24.0 meq H^+ /l
Gastric juice secreted ([3]; 60.0 mg/kg): 2.9 mL
Inhibition rate (acidity) ([3]; 60.0 mg/kg): 70.0%
Inhibition rate (amount of acid discharged) ([3]; 60.0 mg/kg): 88.0%
Inhibition rate (gastric juice secreted) ([3]; 60.0 mg/kg): 50.0%
Inhibition rate (pepsin activity) ([3]; 60.0 mg/kg): 21.0%
Pepsin activity ([3]; 60.0 mg/kg): 4.9 mg/mL
Amount of acid discharged ([3]; Table 3, 6.7 mg/kg): 54.0 μEq/H
Amount of acid discharged ([3]; Table 3, 20.0 mg/kg): 25.0 μEq/H
Amount of acid discharged ([3]; Table 3, 60.0 mg/kg): 10.0 μEq/H

Sc1nnc(NCCCOc2cccc(CN3CCCCC3)c2)s1 [H2 --37, 2-N-{3-[3-(1-piperidinomethyl)phenoxy]propyl}amino-5-mercapto-1,3,4-thiadiazole]
Acidity ([3]; 6.7 mg/kg): 85.0 meq H^+ /l
Gastric juice secreted ([3]; 6.7 mg/kg): 4.6 mL
Inhibition rate (acidity) ([3]; 6.7 mg/kg): 4.5%
Inhibition rate (amount of acid discharged) ([3]; 6.7 mg/kg): 22.0%
Inhibition rate (gastric juice secreted) ([3]; 6.7 mg/kg): 27.0%
Inhibition rate (pepsin activity) ([3]; 6.7 mg/kg): -7.3%
Pepsin activity ([3]; 6.7 mg/kg): 5.9 mg/mL
Acidity ([3]; 20.0 mg/kg): 81.0 meq H^+ /l
Gastric juice secreted ([3]; 20.0 mg/kg): 5.2 mL
Inhibition rate (acidity) ([3]; 20.0 mg/kg): 9.0%
Inhibition rate (amount of acid discharged) ([3]; 20.0 mg/kg): 21.0%
Inhibition rate (gastric juice secreted) ([3]; 20.0 mg/kg): 18.0%
Inhibition rate (pepsin activity) ([3]; 20.0 mg/kg): -7.3%
Pepsin activity ([3]; 20.0 mg/kg): 5.9 mg/mL
Acidity ([3]; 60.0 mg/kg): 67.0 meq H^+ /l
Gastric juice secreted ([3]; 60.0 mg/kg): 3.6 mL
Inhibition rate (acidity) ([3]; 60.0 mg/kg): 24.0%
Inhibition rate (amount of acid discharged) ([3]; 60.0 mg/kg): 57.0%
Inhibition rate (gastric juice secreted) ([3]; 60.0 mg/kg): 43.0%
Inhibition rate (pepsin activity) ([3]; 60.0 mg/kg): 1.8%
Pepsin activity ([3]; 60.0 mg/kg): 5.4 mg/mL
Amount of acid discharged ([3]; Table 4, 6.7 mg/kg): 67.0 μEq/h
Amount of acid discharged ([3]; Table 4, 20.0 mg/kg): 68.0 μEq/h
Amount of acid discharged ([3]; Table 4, 60.0 mg/kg): 37.0 μEq/h

Nc1nnc(NCCCOc2cccc(CN3CCCCC3)c2)s1 [TAS, 2-N-{3-[3-(1-piperidinomethyl)phenoxy]propyl}-amino-5-amino-1,3,4-thiadiazole hydrochloride]
Inhibition rate (ulcer) ([4]; 6.3 mg/kg): 60.0%
Inhibition rate (ulcer) ([4]; 12.5 mg/kg): 90.0%
Inhibition rate (ulcer) ([4]; 25.0 mg/kg): 95.0%
Inhibition rate (ulcer) ([4]; 50.0 mg/kg): 100%
antiulcer effects compared with 200 mg/kg of cimetidine or ranitidine ([4]; 12.5 to 50 mg/kg): far superior
Rate of control of the amount of acid discharged ([3]; Table 5, 6.7 mg/kg, ten rats): 85.7%
Rate of control of the amount of pepsin discharged ([3]; Table 5, 6.7 mg/kg, ten rats): 13.6%
Rate of inhibition of acidity ([3]; Table 5, 6.7 mg/kg, ten rats): 67.4%
Rate of inhibition of the secretion of gastric juice ([3]; Table 5, 6.7 mg/kg, ten rats): 57.7%
Rate of control of the amount of acid discharged ([3]; Table 5, 20.0 mg/kg, ten rats): 91.4%
Rate of control of the amount of pepsin discharged ([3]; Table 5, 20.0 mg/kg, ten rats): 25.8%
Rate of inhibition of acidity ([3]; Table 5, 20.0 mg/kg, ten rats): 74.0%
Rate of inhibition of the secretion of gastric juice ([3]; Table 5, 20.0 mg/kg, ten rats): 65.4%
Rate of control of the amount of acid discharged ([3]; Table 5, 60.0 mg/kg, ten rats): 100%
Rate of control of the amount of pepsin discharged ([3]; Table 5, 60.0 mg/kg, ten rats): 86.4%
Rate of inhibition of acidity ([3]; Table 5, 60.0 mg/kg, ten rats): 100%
Rate of inhibition of the secretion of gastric juice ([3]; Table 5, 60.0 mg/kg, ten rats): 82.7%
Rate of control of the amount of acid discharged ([3]; Table 6, 0.7 mg/kg): 40.2%
Rate of control of the amount of pepsin discharged ([3]; Table 6, 0.7 mg/kg): -1.3%
Rate of inhibition of acidity ([3]; Table 6, 0.7 mg/kg): 22.4%
Rate of inhibition of the secretion of gastric juice ([3]; Table 6, 0.7 mg/kg): 23.51%
Rate of control of the amount of acid discharged ([3]; Table 6, 6.7 mg/kg): 81.5%
Rate of control of the amount of pepsin discharged ([3]; Table 6, 6.7 mg/kg): 15.2%
Rate of inhibition of acidity ([3]; Table 6, 6.7 mg/kg): 65.7%
Rate of inhibition of the secretion of gastric juice ([3]; Table 6, 6.7 mg/kg): 52.9%
Rate of control of the amount of acid discharged ([3]; Table 6, 20.0 mg/kg): 91.5%
Rate of control of the amount of pepsin discharged ([3]; Table 6, 20.0 mg/kg): 30.4%
Rate of inhibition of acidity ([3]; Table 6, 20.0 mg/kg): 75.0%
Rate of inhibition of the secretion of gastric juice ([3]; Table 6, 20.0 mg/kg): 66.7%

CN/C(=N/CCSCc1nc[nH]c1C)NC#N [cimetidine, reference compound]
Inhibition rate (ulcer) ([4]; 100 mg/kg): 10%
Inhibition rate (ulcer) ([4]; 200 mg/kg): 60%
Acidity ([3]; 6.7 mg/kg): 85.0 meq H^+ /l and 76.0 meq H^+ /l
Gastric juice secreted ([3]; 6.7 mg/kg): 5.4 mL and 5.0 mL
Pepsin activity ([3]; 6.7 mg/kg): 7.0 mg/mL and 5.5 mg/mL
Acidity ([3]; 20.0 mg/kg): 77.0 meq H^+ /l and 79.0 meq H^+ /l
Gastric juice secreted ([3]; 20.0 mg/kg): 4.8 mL and 4.5 mL
Inhibition rate (acidity) ([3]; 20.0 mg/kg): 5.4% and 11.0%
Inhibition rate (amount of acid discharged) ([3]; 20.0 mg/kg): 31.0% and 29.0%
Inhibition rate (gastric juice secreted) ([3]; 20.0 mg/kg): 17.0% and 29.0%
Inhibition rate (pepsin activity) ([3]; 20.0 mg/kg): 0% and 7.3%
Pepsin activity ([3]; 20.0 mg/kg): 6.2 mg/mL and 5.1 mg/mL
Acidity ([3]; 60.0 mg/kg): 61.0 meq H^+ /l and 62.0 meq H^+ /l
Gastric juice secreted ([3]; 60.0 mg/kg): 3.7 mL and 4.5 mL
Inhibition rate (acidity) ([3]; 60.0 mg/kg): 25.0% and 31.0%
Inhibition rate (amount of acid discharged) ([3]; 60.0 mg/kg): 55.0% and 45.0%
Inhibition rate (gastric juice secreted) ([3]; 60.0 mg/kg): 36.0% and 29.0%
Pepsin activity ([3]; 60.0 mg/kg): 6.3 mg/mL
Amount of acid discharged ([3]; Table 3, 6.7 mg/kg): 79.0 μEq/H
Amount of acid discharged ([3]; Table 3, 20.0 mg/kg): 57.0 μEq/H
Amount of acid discharged ([3]; Table 3, 60.0 mg/kg): 38.0 μEq/H
Amount of acid discharged ([3]; Table 4, 6.7 mg/kg): 67.0 μEq/h
Amount of acid discharged ([3]; Table 4, 20.0 mg/kg): 61.0 μEq/h
Amount of acid discharged ([3]; Table 4, 60.0 mg/kg): 47.0 μEq/h
Rate of control of the amount of acid discharged ([3]; Table 5, 6.7 mg/kg, ten rats): 2.5%
Rate of control of the amount of pepsin discharged ([3]; Table 5, 6.7 mg/kg, ten rats): -6.1%
Rate of inhibition of acidity ([3]; Table 5, 6.7 mg/kg, ten rats): 2.9%
Rate of inhibition of the secretion of gastric juice ([3]; Table 5, 6.7 mg/kg, ten rats): 3.8%
Rate of control of the amount of acid discharged ([3]; Table 5, 20.0 mg/kg, ten rats): 25.6%
Rate of control of the amount of pepsin discharged ([3]; Table 5, 20.0 mg/kg, ten rats): 6.1%
Rate of inhibition of acidity ([3]; Table 5, 20.0 mg/kg, ten rats): 12.4%
Rate of inhibition of the secretion of gastric juice ([3]; Table 5, 20.0 mg/kg, ten rats): 7.7%
Rate of control of the amount of acid discharged ([3]; Table 5, 60.0 mg/kg, ten rats): 51.1%
Rate of control of the amount of pepsin discharged ([3]; Table 5, 60.0 mg/kg, ten rats): 4.5%
Rate of inhibition of acidity ([3]; Table 5, 60.0 mg/kg, ten rats): 30.9%
Rate of inhibition of the secretion of gastric juice ([3]; Table 5, 60.0 mg/kg, ten rats): 28.8%

CNC(=C[N+](=O)[O-])NCCSCc1ccc(CN(C)C)o1 [ranitidine, reference compound]
Inhibition rate (ulcer) ([4]; 100 mg/kg): 50%
Inhibition rate (ulcer) ([4]; 200 mg/kg): 85%
Rate of control of the amount of acid discharged ([3]; Table 5, 6.7 mg/kg, ten rats): 19.3%
Rate of control of the amount of pepsin discharged ([3]; Table 5, 6.7 mg/kg, ten rats): 1.5%
Rate of inhibition of acidity ([3]; Table 5, 6.7 mg/kg, ten rats): 11.3%
Rate of inhibition of the secretion of gastric juice ([3]; Table 5, 6.7 mg/kg, ten rats): 7.7%
Rate of control of the amount of acid discharged ([3]; Table 5, 20.0 mg/kg, ten rats): 54.2%
Rate of control of the amount of pepsin discharged ([3]; Table 5, 20.0 mg/kg, ten rats): -4.5%
Rate of inhibition of acidity ([3]; Table 5, 20.0 mg/kg, ten rats): 28.2%
Rate of inhibition of the secretion of gastric juice ([3]; Table 5, 20.0 mg/kg, ten rats): 23.1%
Rate of control of the amount of acid discharged ([3]; Table 5, 60.0 mg/kg, ten rats): 67.4%
Rate of control of the amount of pepsin discharged ([3]; Table 5, 60.0 mg/kg, ten rats): -3.0%
Rate of inhibition of acidity ([3]; Table 5, 60.0 mg/kg, ten rats): 50.1%
Rate of inhibition of the secretion of gastric juice ([3]; Table 5, 60.0 mg/kg, ten rats): 34.6%
